Measurements: patent US10233202B2, “Tenofovir monobenzyl ester phosphamide prodrug, preparation method and use thereof” (JIANGSU TASLY DIYI PHARMACEUTICAL CO., LTD., priority 2015, dated 2019)
Like-named read-outs stand apart in the source and are kept apart here.

How the values were obtained:
[1] = Stability in the human blood; assay type: in vitro ADME; conditions: 2 μM
Experimental: (§1) The following stability test were carried out according to the prior art, and the data of the stability test shown in the table were the residue percentages after the test compounds were incubated for different period of time under the test condition.

[2] = molecular target: hERG K-channel (Homo sapiens, UniProt Q12809); assay: hERG manual whole-cell patch clamp in CHO cells (cardiotoxicity study); conditions: IC50, hERG current, room temperature
Experimental: The CHO cells obtained from AVivaBiosciences that could stably express the hERG K-channel were used in the test, and the cells were incubated at 37° C. in 5% CO2 and under constant humidity.
The final concentration of DMSO in the extracellular fluid was not higher than 0.30%.
The whole-cell patch clamp technique was used on the Multiclamp patch-clamp amplifier to test the compound at room temperature, the output signal was digitalized using the DIgiDAta 1440 A/D-D/A plate, and the Pclamp10 software was used for the control of the recording. The minimum sealing resistance was set at 500 MOh/ms, and the minimum specific hERG current was set at 0.4 nA for quality control.
Clampfit (V10.2, Molecular Devices), Excel 2003 and GraphPad Prism 5.0 were used for the data analysis. The calculation formula of the current: I/Icontrol=Bottom+(Top−Bottom)/(1+10^((LogIC50−Log C)*Hillslope

[3] = test system: HepG2.2.15 cells; assay: in vitro; assay type: cell-based; conditions: comparative test, Table 4
Experimental: (§2) The concentration of HBV DNA in the HepG2.2.15 cell supernatant was detected through the real-time fluorescence quantitative PCR (qPCR) method to determine the anti-HBV activity of the compound in the HepG2.2.15 cells, and the effect of the testing compounds to the HepG2.2.15 cell activity was detected through Cell-titer Blue.
(§3) 8.1. Dilution of the compounds: the initial concentration of each compound in the in vitro anti-HBV activity test was 1 μM, with 3-fold serial dilution to 8 concentrations; the initial concentration of each compound in the cytotoxicity test was 100 μM, with 3-fold serial dilution to 8 concentrations; DMSO was used for the dilution of the compound mother liquor. The initial concentrations of the reference compound TDF for the anti-HBV activity test in vitro and the cytotoxicity test were all set at 0.2 μM, with 3-fold serial dilution to 8 concentrations.
(§4) 8.3. Treatment of the cells in the cell viability test: the HepG2.2.15 cells were plated in the 96-well plate (4×10^4 cells/well), and cultured overnight at 37° C. in 5% CO2. On 2nd day, fresh culture solutions containing compounds of different concentrations were added to the culture wells. See Table 3 for the compound distribution. On 5th day, the used culture solutions in the culture wells were sucked and discarded, and fresh culture solutions containing compounds of different concentrations were added. On 8th day, Cell-titer Blue agent was added to each well, and the microplate reader was used to detect the fluorescence value of each well.
(§5) The cell viability percentage was calculated using the following formula: % cell viability=(fluorescence of sample−fluorescence of medium control)/(fluorescence of DMSO control−fluorescence of medium control)[…] 100%
(§6) 9.2 Test method: the test was carried out according to the procedure in example 1.

[4] = in vitro; assay type: cell-based; conditions: human; HepG2.2.15 cells, Cell-titer Blue on 8th day; Table 3
Experimental: as §2, §3, §4, §5, §6

[5] = test system: HBV; assay: Cell based anti-HBV activity test, HBV DNA in HepG2.2.15 cell supernatant by qPCR; conditions: Hepatitis B virus, HepG2.2.15, HepG2.2.15 cells, read-out: EC50
Experimental: as §3
8.2. Anti-HBV activity test in vitro: the HepG2.2.15 cells were plated in the 96-well plate (4×10^4 cells/well), and cultured overnight at 37° C. in 5% CO2. On second day, fresh culture solutions containing compounds of different concentrations were added to the culture wells. See Table 2 for the compound distribution. On 5th day, the used culture solutions in the culture wells were sucked and discarded, and fresh culture solutions containing compounds of different concentrations were added. On 8th day, the supernatant in the culture wells was collected for the extraction of HBV DNA in the supernatant. qPCR test was used to detect the concentration of HBV DNA content in the HepG2.2.15 supernatant.
8.4. Data analysis and calculation of the inhibition percentage and relative cell viability: The inhibition percentage was calculated using the following formula: % Inh.=[(HBV quantity of DMSO control−HBV quantity of sample)/HBV quantity of DMSO control]×100%
9.1 Drugs: the dilution method and concentrations of compound 3, the reference compound (CN201380030061.6, and the compound shown in claim 36 (abbreviation: compound 7), and the isomer thereof) were the same as those in example 1.
as §6

[6] = test system: HIV-1 IIIB; assay: In vitro anti-HIV activity test in MT-4 cells infected with HIV-1 IIIB (CellTiter Glo); assay type: cell-based; conditions: Human immunodeficiency virus 1, MT4, 120 h; MT-4 cells infected with HIV-1 IIIB, 5 days; read-out: EC50
Experimental: 9.1. Dilution and concentrations of the compounds and the reference compound (CN01813161GS-7340, TDF) were the same as those in example 1.
9.2. In vitro anti-HIV activity test: after MT-4 cells were infected with 24 TCID50HIV-1 IIIB/1×10^5 cells (2.4 TCID50/well) at 37° C. for 1 hour, they were plated in the 96-well plate containing the compounds of different concentrations ([…]) and cultured at 37° C. in 5% CO2 for 5 days. CellTiter Glo was used to determine the activity to calculate the EC50 value.
(§7) 9.4. Data analysis and calculation of the inhibition percentage: the activity percentage was calculated using the following formula: Activity (%) =(Raw datacpd−AverageVC)/(AverageCC−AverageVC)*100Cell Viability (%)=Raw datacpd/AverageCC*100

[7] = Stability in the simulated gastric fluid; assay type: in vitro ADME; conditions: 10 μM
Experimental: as §1

[8] = Stability in the simulated intestinal fluid; assay type: in vitro ADME; conditions: 10 μM
Experimental: as §1

[9] = Stability in the human liver S9; assay type: in vitro ADME; conditions: human liver S9, 1 μM
Experimental: as §1

[10] = Cell viability test in MT-4 cells (CellTiter Glo); assay type: cell-based; conditions: human
Experimental: 9.3. Treatment of the cells in the cell viability test: parallel tests were carried out using the same method as that in 9.2, except that the 96-well plate containing the compounds of different concentrations were replaced with the blank 96-well plate, and CellTiter Glo was used to determine the cell viability to calculate the CC50 value.
as §7

hERG K-channel, sequence (Q12809 whole entry): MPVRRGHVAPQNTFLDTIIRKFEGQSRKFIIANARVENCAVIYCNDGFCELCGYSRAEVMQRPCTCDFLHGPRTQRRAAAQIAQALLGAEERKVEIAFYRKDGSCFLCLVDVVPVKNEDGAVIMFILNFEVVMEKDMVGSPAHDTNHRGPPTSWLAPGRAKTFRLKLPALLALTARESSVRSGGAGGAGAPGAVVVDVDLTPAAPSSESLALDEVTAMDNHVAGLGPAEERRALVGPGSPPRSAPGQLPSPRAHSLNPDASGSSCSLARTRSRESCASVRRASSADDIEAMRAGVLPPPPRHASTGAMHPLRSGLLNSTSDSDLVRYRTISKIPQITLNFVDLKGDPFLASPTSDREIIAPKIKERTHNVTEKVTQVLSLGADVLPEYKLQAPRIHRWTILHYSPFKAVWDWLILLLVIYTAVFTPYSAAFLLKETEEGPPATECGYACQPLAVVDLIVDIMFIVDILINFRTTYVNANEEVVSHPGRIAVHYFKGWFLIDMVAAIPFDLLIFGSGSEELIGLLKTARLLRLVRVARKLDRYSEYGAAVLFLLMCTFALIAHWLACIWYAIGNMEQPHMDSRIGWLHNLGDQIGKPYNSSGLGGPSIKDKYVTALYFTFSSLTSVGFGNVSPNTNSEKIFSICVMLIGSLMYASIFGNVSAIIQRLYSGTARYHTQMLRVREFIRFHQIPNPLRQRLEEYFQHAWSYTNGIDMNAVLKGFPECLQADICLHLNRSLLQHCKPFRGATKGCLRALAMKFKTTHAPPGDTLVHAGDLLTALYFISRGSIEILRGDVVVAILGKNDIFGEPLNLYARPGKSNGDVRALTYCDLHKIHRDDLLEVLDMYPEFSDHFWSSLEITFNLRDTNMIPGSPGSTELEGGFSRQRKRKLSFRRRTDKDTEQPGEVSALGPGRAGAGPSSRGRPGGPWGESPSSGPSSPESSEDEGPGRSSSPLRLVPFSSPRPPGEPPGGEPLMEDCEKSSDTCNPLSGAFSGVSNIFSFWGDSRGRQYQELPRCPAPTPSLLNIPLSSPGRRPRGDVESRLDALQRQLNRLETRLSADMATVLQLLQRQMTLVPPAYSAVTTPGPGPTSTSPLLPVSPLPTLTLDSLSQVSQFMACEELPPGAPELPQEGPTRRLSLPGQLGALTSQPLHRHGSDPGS

Structure (SMILES): CC(C)OC(=O)[C@H](C)N[P@](=O)(CO[C@H](C)Cn1cnc2c(N)ncnc21)OCc1ccccc1 (single isomer, unassigned) [Compound 3b]
- % 0 min (residue percentage) ([1]; 0 min): 100%
- % 10 min (residue percentage) ([1]; 10 min): 97.1%
- % 30 min (residue percentage) ([1]; 30 min): 96.4%
- % 60 min (residue percentage) ([1]; 60 min): 96.1%
- % 120 min (residue percentage) ([1]; 120 min): 93.7%
- IC50 [2]: > 30 µM
- CC50 [3]: > 100 µM
- CC50 [4]: > 100 µM
- EC50 ([5]; HBV DNA in supernatant on 8th day, Table 3): < 0.01 µM
- EC50 ([5]; comparative test, Table 4): 0.006 µM
- EC50 [6]: 0.00986 µM
- % 0 min (residue percentage) ([7]; 0 min): 100%
- % 60 min (residue percentage) ([7]; 60 min): 84.26%
- % 120 min (residue percentage) ([7]; 120 min): 58.54%
- % 360 min (residue percentage) ([7]; 360 min): 17.28%
- % 1440 min (residue percentage) ([7]; 1440 min): 0.00%
- % 0 min (residue percentage) ([8]; 0 min): 100%
- % 60 min (residue percentage) ([8]; 60 min): 51.07%
- % 120 min (residue percentage) ([8]; 120 min): 20.20%
- % 360 min (residue percentage) ([8]; 360 min): 0.23%
- % 1440 min (residue percentage) ([8]; 1440 min): 0.00%
- CLlint(s9) [9]: 68.6 µL/min/mg
- half-life at 1 μM [9]: 10.1 min
- Remaining (T = 60 min) ([9]; 60 min): 9%
- CLlint(s9) ([9]; scaled per kg): 0.2415 mL/min/kg
- CC50 at 5 days [10]: 16.9 µM
